Data from ChEMBL document CHEMBL1201862, “PubChem BioAssay data set” (2004).
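Method: 48-hour compound exposure of cells in 96-well plates, five concentrations, linear interpolation of endpoints. GI50 is the concentration that inhibits growth by half.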 The source made the active and inactive calls. No stated cut-off is given here; in the data, active = GI50 up to about 1.1 µM and inactive = higher.

Tests used:
Experiment in all cases: NCI-60 cell line screen, 48 h
SF-295 = system: SF-295
SF-539 = system: SF-539
NCI-H23 = system: NCI-H23
HCT-15 = system: HCT-15
Malme-3M = system: Malme-3M
OVCAR-3 = system: OVCAR-3
SNB-19 = system: SNB-19
NCI-H460 = system: NCI-H460
NCI/ADR-RES = system: NCI/ADR-RES
SR = system: SR
HOP-92 = system: HOP-92
UO-31 = system: UO-31
CCRF-CEM = system: CCRF-CEM
HL-60 = system: HL-60
CAKI-1 = system: CAKI-1
EKVX = system: EKVX
ACHN = system: ACHN
SK-MEL-5 = system: SK-MEL-5
HT-29 = system: HT-29
SK-MEL-28 = system: SK-MEL-28

Compound	GI50 (SF-295)	GI50 (SF-539)	GI50 (NCI-H23)	GI50 (HCT-15) [µM]	GI50 (Malme-3M)	GI50 (OVCAR-3)	GI50 (SNB-19)	GI50 (NCI-H460)	GI50 (NCI/ADR-RES)	GI50 (SR)	GI50 (HOP-92)	GI50 (UO-31)	GI50 (CCRF-CEM)	GI50 (HL-60)	GI50 (CAKI-1)	GI50 (EKVX)	GI50 (ACHN)	GI50 (SK-MEL-5)	GI50 (HT-29)	GI50 (SK-MEL-28)
CCN(CC)CCCC(C)Nc1ccnc2cc3ccccc3cc12 (configuration not stated)	5.82 µM (inactive)	22.8 µM (inactive)	14.3 µM (inactive)	3.23	19.7 µM (inactive)	6.05 µM (inactive)	7.53 µM (inactive)	3.57 µM (inactive)	10.1 µM (inactive)	3.75 µM (inactive)	12.3 µM (inactive)	6.32 µM (inactive)	> 100 µM (inactive)	10.7 µM (inactive)	9.2 µM (inactive)	32.2 µM (inactive)	3.72 µM (inactive)	19.8 µM (inactive)		
CC1=C(C(=O)OCc2ccncc2)C(C2=C(C)SCCS2)C(C(=O)OCc2ccncc2)=C(C)N1	18.2 µM (inactive)	16.4 µM (inactive)	24.2 µM (inactive)	25.6		19.3 µM (inactive)	29.1 µM (inactive)	23.4 µM (inactive)	37.4 µM (inactive)	33.6 µM (inactive)	12.3 µM (inactive)	17.5 µM (inactive)	17.7 µM (inactive)	25.4 µM (inactive)	26.3 µM (inactive)	21.2 µM (inactive)	34.5 µM (inactive)	15.3 µM (inactive)	17.9 µM (inactive)	16.8 µM (inactive)
CC[N+]1(C)CCC(O)(c2ccc(C)cc2)C(C(=O)c2ccc(C)cc2)C1 (configuration not stated)	37.4 µM (inactive)	66.8 µM (inactive)	> 100 µM (inactive)	21.7	26.1 µM (inactive)	21.7 µM (inactive)	> 100 µM (inactive)	> 100 µM (inactive)	> 100 µM (inactive)	16.2 µM (inactive)	23 µM (inactive)	> 100 µM (inactive)	22 µM (inactive)	56.8 µM (inactive)	23.9 µM (inactive)	> 100 µM (inactive)	23.3 µM (inactive)	> 100 µM (inactive)	42.7 µM (inactive)	
O=C(Nc1nnc(-c2c(Cl)c(Cl)c(Cl)c(Cl)c2-c2nc3cc(C(=O)c4ccccc4)ccc3[nH]2)o1)c1ccc(Cl)cc1	5.86 µM (inactive)	22.4 µM (inactive)	26.8 µM (inactive)	22.5		13.8 µM (inactive)	34 µM (inactive)		26.7 µM (inactive)	4.88 µM (inactive)	20.5 µM (inactive)	41.7 µM (inactive)	6.27 µM (inactive)	20.3 µM (inactive)	40.7 µM (inactive)	25.9 µM (inactive)	30.7 µM (inactive)	12.2 µM (inactive)	37.9 µM (inactive)	36.7 µM (inactive)
CCN(C(C)=O)c1cnc(/C=N/NC(N)=S)c2ccccc12	3.14 µM (inactive)	2.93 µM (inactive)	3.36 µM (inactive)	2.25	11.4 µM (inactive)	2.58 µM (inactive)	3.49 µM (inactive)	1.5 µM (inactive)	10.6 µM (inactive)	0.631 µM (active)	> 40.4 µM (inactive)	1.81 µM (inactive)	2.54 µM (inactive)	1.77 µM (inactive)	3.3 µM (inactive)	4.29 µM (inactive)	1.76 µM (inactive)	2.84 µM (inactive)	3.49 µM (inactive)	
CC(C)(C)c1cc(C2NC(=O)NC2=O)cc(C(C)(C)C)c1O (configuration not stated)	64.4 µM (inactive)	> 100 µM (inactive)	56.8 µM (inactive)	93.3	80 µM (inactive)	34.1 µM (inactive)	> 100 µM (inactive)		> 100 µM (inactive)	28.8 µM (inactive)	38.1 µM (inactive)	> 100 µM (inactive)	26.1 µM (inactive)		> 100 µM (inactive)	> 100 µM (inactive)	> 100 µM (inactive)	> 10 µM (inactive)	46.5 µM (inactive)	31.7 µM (inactive)
COc1ccc2c(c1)[n+]([O-])c1cc(C#N)ccc1[n+]2[O-]	0.767 µM (active)	3.41 µM (inactive)	0.849 µM (active)	0.723	2.58 µM (inactive)	5.83 µM (inactive)	7.87 µM (inactive)	0.547 µM (active)	15.5 µM (inactive)	4.08 µM (inactive)	6.56 µM (inactive)	5.31 µM (inactive)		4.63 µM (inactive)	4.09 µM (inactive)	24 µM (inactive)	1.69 µM (inactive)	0.893 µM (active)	2.87 µM (inactive)	12.9 µM (inactive)
O=c1[nH]c(=O)n(C2CC(O)C(CO)O2)c2nc3ccc4ccccc4c3nc12 (configuration not stated)	53.6 µM (inactive)	92.9 µM (inactive)	> 100 µM (inactive)	62.2	> 100 µM (inactive)	> 100 µM (inactive)	30.5 µM (inactive)	21.3 µM (inactive)	> 100 µM (inactive)	24.9 µM (inactive)	25.6 µM (inactive)	> 100 µM (inactive)	34.2 µM (inactive)		> 100 µM (inactive)	72.4 µM (inactive)	> 100 µM (inactive)	54.1 µM (inactive)		94.2 µM (inactive)
O=C(/C=C/c1ccc(O)c(O)c1)NC(CO)C(=O)O (configuration not stated)	> 100 µM (inactive)	> 100 µM (inactive)	> 100 µM (inactive)	1.08	> 100 µM (inactive)	> 100 µM (inactive)	> 100 µM (inactive)	> 100 µM (inactive)	2.59 µM (inactive)	> 100 µM (inactive)	3.72 µM (inactive)	> 100 µM (inactive)	> 100 µM (inactive)		> 100 µM (inactive)	> 100 µM (inactive)	> 100 µM (inactive)	> 100 µM (inactive)	> 100 µM (inactive)	> 100 µM (inactive)
Cc1cn(C2CCC(CO)(CF)O2)c(=O)[nH]c1=O (configuration not stated)	> 100 µM (inactive)	> 100 µM (inactive)	> 100 µM (inactive)	> 100		> 100 µM (inactive)	> 100 µM (inactive)	> 100 µM (inactive)	> 100 µM (inactive)	> 100 µM (inactive)	> 100 µM (inactive)	> 100 µM (inactive)	> 100 µM (inactive)	> 100 µM (inactive)	> 100 µM (inactive)	> 100 µM (inactive)	> 100 µM (inactive)	> 100 µM (inactive)	> 100 µM (inactive)	> 100 µM (inactive)
CN1C2=C(CC3=C1CC(C)(C)CC3=O)C(=O)CC(C)(C)C2		> 100 µM (inactive)	> 100 µM (inactive)	> 100		> 100 µM (inactive)	> 100 µM (inactive)	> 100 µM (inactive)	> 100 µM (inactive)	> 100 µM (inactive)	> 100 µM (inactive)	> 100 µM (inactive)	> 100 µM (inactive)	> 100 µM (inactive)	> 100 µM (inactive)	> 100 µM (inactive)	> 100 µM (inactive)	> 100 µM (inactive)	> 100 µM (inactive)	> 100 µM (inactive)
COc1ccccc1N(CN1C(=O)CCC1C(=O)O)C(C)=O (configuration not stated)	> 100 µM (inactive)	> 100 µM (inactive)	> 100 µM (inactive)	> 100	> 100 µM (inactive)	> 100 µM (inactive)	> 100 µM (inactive)	> 100 µM (inactive)	> 100 µM (inactive)	72.6 µM (inactive)	> 100 µM (inactive)	> 100 µM (inactive)		> 100 µM (inactive)	> 100 µM (inactive)	> 100 µM (inactive)	> 100 µM (inactive)	> 100 µM (inactive)	> 100 µM (inactive)	> 100 µM (inactive)
COc1cccc(/C=C\c2ccc(O)cc2)c1	28.6 µM (inactive)	13.7 µM (inactive)	15.1 µM (inactive)	23.7	20.2 µM (inactive)	16.8 µM (inactive)	29.7 µM (inactive)	4.1 µM (inactive)	6.12 µM (inactive)	2.72 µM (inactive)	18.2 µM (inactive)	5.4 µM (inactive)		0.151 µM (active)	17.7 µM (inactive)	30.2 µM (inactive)	3.64 µM (inactive)	17.6 µM (inactive)	21.3 µM (inactive)	40.1 µM (inactive)
C=C1C(=O)O[C@H]2C(=O)[C@H](C)CCC/C(C)=C/CC[C@@]3(C)O[C@@H]3C[C@@H]12	14 µM (inactive)	2.39 µM (inactive)	14 µM (inactive)	1.56		1.74 µM (inactive)	11.4 µM (inactive)	15.4 µM (inactive)	14 µM (inactive)	2.45 µM (inactive)	1 µM (active)	1.62 µM (inactive)	1.18 µM (inactive)	2.72 µM (inactive)	1.67 µM (inactive)		1.34 µM (inactive)	7.59 µM (inactive)	1.9 µM (inactive)	
COc1cccc2c1C(=N)c1c(O)c3c(c(O)c1C2=O)C[C@@](O)(C(C)=O)C[C@@H]3OC1CC(N)C(O)C(C)O1 (some centres not stated)	0.000206 µM (active)	0.00789 µM (active)	0.00875 µM (active)	3.27	0.000721 µM (active)		0.00811 µM (active)	0.00573 µM (active)	0.000159 µM (active)	0.00466 µM (active)	0.655 µM (active)	0.00369 µM (active)	0.0001 µM (active)		0.141 µM (active)	1.42 µM (inactive)	0.244 µM (active)	0.196 µM (active)	0.4 µM (active)	2.3 µM (inactive)
